“Also recorded” adds a separate entry of the source. Like-named read-outs stand apart in the source and are kept apart here. Each block holds one compound with its values, some of them ahead of it.
How the values were obtained:
[1] = test system: P-STAT5 in BA/F3-EpoR-Jak2V617F cells; assay: Western blot of phospho-STAT5 in BA/F3-EpoR-Jak2V617F cells; assay type: cell-based, murine; conditions: 2.5 μM, 3 hrs
[2] = test system: HEL cells; assay: Cell proliferation assay; assay type: cell-based, human; conditions: for effect on proliferation of HEL cells: 0.3 or 1 μM; for IC50: read-out: IC50 values, Proliferation assay
[3] = test system: Phospho-STAT5 (P-STAT5) levels in HEL cells (Jak2V617F); assay: Western blot of phospho-STAT5 in HEL cells; assay type: cell-based, human; conditions: for effect on phosphorylation of STAT5 (Western blot): 0.5, 1 or 5 μM, 3 hrs; for IC50 values, WB (P-STAT5) / IC50: mean ± SD
[4] = test system: P-STAT5 in UKE-1 cells (Jak2V617F); assay: Western blot of phospho-STAT5 in UKE-1 cells; assay type: cell-based; conditions: 2.5 μM, 3 hrs
[5] = test system: Jak2V617F phosphorylation (P-Jak2) in HEL cells; assay: Western blot of phospho-Jak2 in HEL cells; assay type: cell-based, human; conditions: 0.5, 1 or 5 μM, 3 hrs
[6] = test system: phosphorylation of histone H3 (target of Aurora kinase B) in HEL cells; assay: Quantitative Western blot of phospho-histone H3 in HEL cells; assay type: cell-based, human; conditions: HEL cells blocked with Nocodazole; 0.25, 0.5 or 1 μM; 3 hrs
[7] = test system: HEL cells; assay: Cell size determination; assay type: cell-based, human; conditions: 600 nM CEP701, TG101209, VX680 or 100 nM AT9283; 24, 48 or 72 hrs
[8] = test system: Jak2V617F in γ2A-FRT-TI-Jak2V617F/STAT3-YFP cells; assay: STAT3-YFP translocation assay; assay type: cell-based; conditions: for IC50: read-out: IC50 values, STAT3-YFP translocation assay
[9] = test system: HEL cells; assay: Cell cycle analysis; assay type: cell-based, human; conditions: 500 nM CEP701, VX680, TG101209 or 100 nM AT9283
[10] = test system: CD34+ cells of Jak2V617F-positive MPN patients; assay: Colony forming cell; assay type: cell-based, human; conditions: single inhibitor; 12–16 days of culture
[11] = test system: phosphorylation of histone H3 in BA/F3-EpoR-Jak2V617F cells; assay: Quantitative Western blot of phospho-histone H3 in BA/F3-EpoR-Jak2V617F cells; assay type: cell-based, murine; conditions: BA/F3-EpoR-Jak2V617F cells blocked with Nocodazole; 0.25, 0.5 or 1 μM; 3 hrs
[12] = test system: 2C4, HCT-116 and K-562 cells; assay: Nuclei size in cell lines not expressing Jak2V617F; assay type: cell-based; conditions: 500 nM; 48 hrs
[13] = test system: Jak2V617F in HEK-V617F-STAT-Rep. cells; assay: pSTAT-ZsGreen reporter gene assay; assay type: cell-based; conditions: for IC50: read-out: IC50 values, STAT-reporter gene assay
[14] = test system: phosphorylation of histone H3 in UKE-1 cells; assay: Quantitative Western blot of phospho-histone H3 in UKE-1 cells; assay type: cell-based; conditions: UKE-1 cells blocked with Nocodazole; 0.25, 0.5 or 1 μM; 3 hrs
[15] = test system: γ2A-FRT-TI-Jak2V617F/STAT3-YFP cells; assay: Nuclei size by confocal imaging and Cell Profiler; assay type: cell-based; conditions: 24 hrs; Cell Profiler
[16] = Homo sapiens, HEL, read-out: IC50 values, WB (P-STAT5), HEL cells
[17] = read-out: IC50 values, WB (P-STAT5), HEL cells
[18] = γ2A-FRT-TI-Jak2V617F/STAT3-YFP cells, mean ± SD
[19] = HEK-V617F-STAT-Rep. cells, 24 hrs, mean ± SD

SMILES: N#C/C(=C/c1ccc(O)c(O)c1)C(=O)NCc1ccccc1 [AG490]
effect on phosphorylation of STAT5 (Western blot) [1]: did not inhibit STAT5 phosphorylation | effect on proliferation of HEL cells ([2]; 72 hrs): neither affected cell growth | effect on phosphorylation of STAT5 (Western blot) ([3]; HEL cells): did not inhibit the phosphorylation of STAT5 | IC50 values, WB (P-STAT5) ([3]; HEL cells): No inhibition | effect on phosphorylation of STAT5 (Western blot) [4]: did not inhibit STAT5 phosphorylation | effect on phosphorylation of Jak2 [5]: not observed

SMILES: O=C(Nc1c[nH]nc1-c1nc2ccc(CN3CCOCC3)cc2[nH]1)NC1CC1 [AT9283]
effect on phosphorylation of STAT5 (Western blot) [1]: efficiently decreased | effect on histone H3 phosphorylation [6]: Reduction in histone H3 phosphorylation | effect on HEL cell size [7]: increased in size | IC50 [8]: 74 ± 38 nM | effect on phosphorylation of STAT5 (Western blot) ([3]; HEL cells): strongly reduced phosphorylation of STAT5 | effect on phosphorylation of STAT5 (Western blot) [4]: efficiently decreased | effect on phosphorylation of Jak2 [5]: increased phosphorylation of Jak2 | effect on cell cycle profile [9]: emergence of an 8n peak

SMILES: CCN(CCCOc1ccc2c(Nc3cc(CC(=O)Nc4cccc(F)c4)n[nH]3)ncnc2c1)CCOP(=O)(O)O [AZD1152]
effect on erythroid and myeloid colony growth [10]: same behaviour

SMILES: CO[C@@H](C(=O)N1Cc2n[nH]c(NC(=O)c3ccc(N4CCN(C)CC4)cc3)c2C1)c1ccccc1 [Danusertib]
effect on erythroid and myeloid colony growth [10]: same behaviour

SMILES: C/C(O)=C(\C#N)C(=O)Nc1cc(Br)ccc1Br [LFM-A13]
effect on proliferation of HEL cells ([2]; 72 hrs): neither affected cell growth | effect on phosphorylation of STAT5 (Western blot) ([3]; HEL cells): did not inhibit the phosphorylation of STAT5 | IC50 values, WB (P-STAT5) ([3]; HEL cells): No inhibition | effect on phosphorylation of Jak2 [5]: not observed

SMILES: O=C(Nc1cccc(Cl)c1)Nc1ncc(CCNc2ncnc3ccsc23)s1 [SNS314]
effect on erythroid and myeloid colony growth [10]: same behaviour

SMILES: Cc1cnc(Nc2ccc(N3CCN(C)CC3)cc2)nc1Nc1cccc(S(=O)(=O)NC(C)(C)C)c1 [TG101209]
effect on phosphorylation of STAT5 (Western blot) [1]: efficiently decreased | concentration at which nuclei size increases [15]: did not show this effect; also recorded: did not have this effect | effect on histone H3 phosphorylation [6]: only very little effect | effect on proliferation of HEL cells ([2]; 72 hrs): reduced proliferation of HEL cells very effectively | IC50 ([2]; HEL cells, 72 hrs, mean ± SD): 243 ± 41 nM | effect on HEL cell size [7]: not observed | IC50 [8, 18]: 125 ± 45 nM | effect on phosphorylation of STAT5 (Western blot) ([3]; HEL cells): strongly reduced phosphorylation of STAT5 | IC50 [3, 17]: 92 ± 18 nM | IC50 [13, 19]: 156 ± 10 nM | effect on phosphorylation of STAT5 (Western blot) [4]: efficiently decreased | effect on phosphorylation of Jak2 [5]: increased phosphorylation of Jak2 | effect on cell cycle profile [9]: reduction in the G2/M peak intensity

SMILES: C[C@H](NC(=O)/C(C#N)=C/c1cccc(Br)n1)c1ccccc1 [WP1066]
effect on phosphorylation of STAT5 (Western blot) [1]: did not inhibit STAT5 phosphorylation | effect on proliferation of HEL cells ([2]; 72 hrs): moderate effect | effect on phosphorylation of STAT5 (Western blot) ([3]; HEL cells): did not inhibit the phosphorylation of STAT5 | IC50 values, WB (P-STAT5) ([3]; HEL cells): No inhibition | IC50 values, STAT-reporter gene assay [13, 19]: No inhibition | effect on phosphorylation of STAT5 (Western blot) [4]: did not inhibit STAT5 phosphorylation | effect on phosphorylation of Jak2 [5]: not observed

Now from value to compound, other results behind:

IC50 [8]: 45 ± 15 nM | IC50 [3, 16]: ~100 nM | IC50 [3, 17]: 97 ± 39 nM
SMILES: C[C@]12O[C@H](C[C@]1(O)CO)n1c3ccccc3c3c4c(c5c6ccccc6n2c5c31)CNC4=O [CEP701]
effect on phosphorylation of STAT5 (Western blot) [1]: efficiently decreased | effect on histone H3 phosphorylation [11]: decline of histone H3 phosphorylation | increase in nuclei size in cell lines not expressing Jak2V617F [12]: this effect was also clearly visible | effect on histone H3 phosphorylation [6]: Reduction in histone H3 phosphorylation | effect on erythroid and myeloid colony growth [10]: erythroid and myeloid colonies were equally well suppressed | effect on proliferation of HEL cells ([2]; 72 hrs): reduced proliferation of HEL cells very effectively | IC50 ([2]; Homo sapiens, HEL, 72 h): 81 ± 20 nM | effect on HEL cell size [7]: increased in size | effect on phosphorylation of STAT5 (Western blot) ([3]; HEL cells): strongly reduced phosphorylation of STAT5 | IC50 ([13]; 24 h): 111 ± 22 nM | effect on histone H3 phosphorylation [14]: decline of histone H3 phosphorylation | effect on phosphorylation of STAT5 (Western blot) [4]: efficiently decreased | effect on phosphorylation of Jak2 [5]: increased phosphorylation of Jak2 | effect on cell cycle profile [9]: emergence of an 8n peak

IC50 [8, 18]: 197 ± 73 nM | IC50 [3, 17]: 133 ± 62 nM
SMILES: CC(C)(C)c1nc2c3cc[nH]c(=O)c3c3cc(F)ccc3c2[nH]1 [JI1]
effect on phosphorylation of STAT5 (Western blot) [1]: efficiently decreased | concentration at which nuclei size increases [15]: did not have this effect | effect on proliferation of HEL cells ([2]; 72 hrs): reduced proliferation of HEL cells very effectively | IC50 ([2]; HEL cells, 72 hrs, mean ± SD): 506 ± 18 nM | effect on phosphorylation of STAT5 (Western blot) ([3]; HEL cells): strongly reduced phosphorylation of STAT5 | IC50 [13, 19]: 291 ± 40 nM | effect on phosphorylation of STAT5 (Western blot) [4]: efficiently decreased | effect on phosphorylation of Jak2 [5]: increased phosphorylation of Jak2

IC50 values, WB (P-STAT5) ([3]; HEL cells): No inhibition
SMILES: Nc1nc(Nc2ccc(S(N)(=O)=O)cc2)nn1C(=O)c1c(F)cccc1F [JNJ7706621]
effect on proliferation of HEL cells ([2]; 72 hrs): neither affected cell growth | effect on phosphorylation of STAT5 (Western blot) ([3]; HEL cells): did not inhibit the phosphorylation of STAT5 | effect on phosphorylation of Jak2 [5]: not observed

IC50 values, WB (P-STAT5) ([3]; HEL cells): No inhibition
SMILES: CCN(CC)CCNC(=O)c1c(C)[nH]c(/C=C2\C(=O)Nc3ccc(F)cc32)c1C [Sunitinib]
effect on phosphorylation of STAT5 (Western blot) [1]: did not inhibit STAT5 phosphorylation | effect on proliferation of HEL cells ([2]; 72 hrs): moderate effect | effect on phosphorylation of STAT5 (Western blot) ([3]; HEL cells): did not inhibit the phosphorylation of STAT5 | effect on phosphorylation of STAT5 (Western blot) [4]: did not inhibit STAT5 phosphorylation | effect on phosphorylation of Jak2 [5]: not observed

IC50 [8]: 385 ± 61 nM | IC50 [3, 16]: ~600 nM | IC50 [3, 17]: 636 ± 203 nM
SMILES: Cc1cnc(Nc2ccc(OCCN3CCCC3)cc2)nc1Nc1cccc(S(=O)(=O)NC(C)(C)C)c1 [TG101348]
effect on phosphorylation of STAT5 (Western blot) [1]: efficiently decreased | concentration at which nuclei size increases [15]: did not have this effect | effect on proliferation of HEL cells ([2]; 72 hrs): showed the same effects but were less efficient | IC50 ([2]; Homo sapiens, HEL, 72 h): 725 ± 85 nM | effect on phosphorylation of STAT5 (Western blot) ([3]; HEL cells): showed the same effects but were less efficient | IC50 ([13]; 24 h): 850 ± 101 nM | effect on phosphorylation of STAT5 (Western blot) [4]: efficiently decreased | effect on phosphorylation of Jak2 [5]: increased phosphorylation of Jak2

IC50 values, STAT3-YFP translocation assay [8, 18]: No inhibition | IC50 values, WB (P-STAT5) ([3]; HEL cells): No inhibition
SMILES: Cc1cc(Nc2cc(N3CCN(C)CC3)nc(Sc3ccc(NC(=O)C4CC4)cc3)n2)[nH]n1 [VX680]
effect on phosphorylation of STAT5 (Western blot) [1]: did not inhibit STAT5 phosphorylation | effect on histone H3 phosphorylation [11]: decline of histone H3 phosphorylation | increase in nuclei size in cell lines not expressing Jak2V617F [12]: this effect was also clearly visible | effect on histone H3 phosphorylation [6]: Reduction in histone H3 phosphorylation | effect on erythroid and myeloid colony growth [10]: reduced the numbers of myeloid colonies very efficiently but had less effect on erythroid colonies | effect on proliferation of HEL cells ([2]; 72 hrs): very efficiently inhibited HEL cell growth | IC50 ([2]; Homo sapiens, HEL, 72 h): 158 ± 26 nM | effect on HEL cell size [7]: increased in size | effect on phosphorylation of STAT5 (Western blot) ([3]; HEL cells): did not inhibit the phosphorylation of STAT5 | IC50 values, STAT-reporter gene assay [13, 19]: No inhibition | effect on histone H3 phosphorylation [14]: decline of histone H3 phosphorylation | effect on phosphorylation of STAT5 (Western blot) [4]: did not inhibit STAT5 phosphorylation | effect on phosphorylation of Jak2 [5]: not observed | effect on cell cycle profile [9]: emergence of an 8n peak

Source: paper PMC3822589 (Journal of Cellular and Molecular Medicine, 2013)
